In ChEMBL document CHEMBL4052698, “Design, synthesis and SAR of a novel series of heterocyclic phenylpropanoic acids as GPR120 agonists” (Bioorg Med Chem Lett, 2017):
Blank lines part the entries; values can stand above or below the molecule they belong to. The source made the active and inactive calls. The rule behind the calls is not given here.

Experiments:
[1] = target: Free fatty acid receptor 4 (Homo sapiens, UniProt Q5NUL3); experiment: Agonist activity at human GPR120 short splice variant expressed in HEK293 cells assessed as increase in intracellular calcium flux by Fluo-4 NW dye based FLIPR assay; assay type: functional, cell-based
[2] = Stability in mouse liver microsomes assessed as parent compound remaining after 10 mins; assay type: ADME, microsome; settings: read-out: Stability
[3] = Stability in human liver microsomes assessed as parent compound remaining after 10 mins; assay type: ADME, microsome; settings: read-out: Stability
[4] = Stability in rat liver microsomes assessed as parent compound remaining after 10 mins; assay type: ADME, microsome; settings: read-out: Stability
[5] = target: T1, Free fatty acid receptor 4 (Homo sapiens, UniProt Q5NUL3); experiment: Agonist activity at human GPR120 expressed in CHO-K1 cells assessed as […] by DiscoveRx PathHunter beta-arrestin assay; assay type: functional, cell-based
T1 sequence (Q5NUL3 whole entry): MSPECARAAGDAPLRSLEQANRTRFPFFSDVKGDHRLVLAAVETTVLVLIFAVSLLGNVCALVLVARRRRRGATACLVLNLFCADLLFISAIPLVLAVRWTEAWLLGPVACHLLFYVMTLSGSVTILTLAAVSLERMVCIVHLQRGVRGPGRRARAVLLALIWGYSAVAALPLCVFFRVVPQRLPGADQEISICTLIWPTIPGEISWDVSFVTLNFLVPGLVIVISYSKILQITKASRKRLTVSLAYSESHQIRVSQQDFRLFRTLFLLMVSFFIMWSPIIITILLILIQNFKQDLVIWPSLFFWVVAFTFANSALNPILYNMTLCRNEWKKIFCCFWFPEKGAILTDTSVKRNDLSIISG

Mus musculus [6] = experiment: (§1) Oral bioavailability in C57/black 6J mouse at 20 mg/kg by LC-MS/MS method; assay type: ADME, organism-based; settings: in vivo
[7] = Protein binding in rat plasma; assay type: ADME, cell-free; settings: read-out: PPB (converted)
[8] = Half life in C57/black 6J mouse at 20 mg/kg dosed as oral gavage by LC-MS/MS method; assay type: ADME, organism-based; settings: in vivo
[9] = Volume of distribution at steady state in C57/black 6J mouse at 5 mg/kg, iv by LC-MS/MS method; assay type: ADME, organism-based; settings: in vivo, read-out: Vdss
[10] = Protein binding in human plasma; assay type: ADME, cell-free; settings: read-out: PPB (converted)
[11] = Protein binding in mouse plasma; assay type: ADME, cell-free; settings: read-out: PPB (converted)
[12] = as §1; assay type: ADME, organism-based; settings: C57/black 6J, in vivo
Mus musculus [13] = experiment: Antidiabetic activity in C57bl/6J mouse assessed as reduction in blood glucose level at 10 mg/kg, po dosed 30 mins before glucose challenge by intraperitoneal glucose tolerance test; assay type: functional, organism-based
Mus musculus [14] = experiment: Antidiabetic activity in C57bl/6J mouse assessed as reduction in blood glucose delta AUC level at 10 mg/kg, po dosed 30 mins before glucose challenge and measured 90 mins post glucose injection by intraperitoneal glucose tolerance test; assay type: functional; parameters: scale not given: the % may be the effect or the level left
[15] = Clearance in C57/black 6J mouse at 5 mg/kg, iv by LC-MS/MS method; assay type: ADME, organism-based; settings: in vivo
Mus musculus [16] = experiment: Antidiabetic activity in C57bl/6J mouse assessed as reduction in blood glucose delta AUC level at 3 mg/kg, po dosed 30 mins before glucose challenge and measured 90 mins post glucose injection by intraperitoneal glucose tolerance test; assay type: functional; parameters: scale not given: the % may be the effect or the level left
[17] = Cmax in C57/black 6J mouse at 20 mg/kg dosed as oral gavage by LC-MS/MS method; assay type: ADME, organism-based; parameters: dose 20 mg/kg, route oral; settings: in vivo
[18] = AUClast in C57/black 6J mouse at 20 mg/kg dosed as oral gavage by LC-MS/MS method; assay type: ADME, organism-based; parameters: dose 20 mg/kg, route oral, time 0 - last; settings: in vivo
Mus musculus [19] = experiment: Antidiabetic activity in C57bl/6J mouse assessed as reduction in blood glucose delta AUC level at 1 mg/kg, po dosed 30 mins before glucose challenge and measured 90 mins post glucose injection by intraperitoneal glucose tolerance test; assay type: functional; parameters: scale not given: the % may be the effect or the level left
Mus musculus [20] = experiment: Antidiabetic activity in C57bl/6J mouse assessed as reduction in blood glucose level at 1 to 10 mg/kg, po dosed 30 mins before glucose challenge by intraperitoneal glucose tolerance test; assay type: functional, organism-based
Mus musculus [21] = experiment: Antidiabetic activity in C57bl/6J mouse assessed as reduction in blood glucose delta AUC level at 1 to 10 mg/kg, po dosed 30 mins before glucose challenge by intraperitoneal glucose tolerance test; assay type: functional, organism-based

EC50 [1]: > 5000 nM
Compound: Cc1c(CCC(=O)O)ccc(OCc2nccn2-c2ccc(Cl)cc2)c1C

remaining at 10 min [2]: 94.1% | remaining at 10 min [3]: 105% | remaining at 10 min [4]: 72.3% | EC50 [1]: 120 nM
Compound: O=C(O)CCc1cc(F)c(OCc2c(-c3ccc(Br)cc3)noc2C(F)(F)F)c(F)c1

EC50 [1]: > 5000 nM
Compound: Cc1c(CCC(=O)O)ccc(OCc2cnnn2-c2ccc(Cl)cc2)c1C

EC50 [1]: 1450 nM
Compound: O=C(O)CCc1ccc(OCc2c(-c3ccc(Cl)cc3)noc2C(F)(F)F)cc1C(F)(F)F

EC50 [1]: 220 nM
Compound: Cc1c(CCC(=O)O)ccc(OCc2ccccc2-c2ccc(Cl)cc2)c1C

EC50 [1]: 170 nM
Compound: O=C(O)CCc1cc(F)c(OCc2c(-c3ccc(C4CC4)cc3)noc2C(F)(F)F)c(F)c1

EC50 [5]: 1090 nM | EC50 [1]: 1070 nM
Compound: Cc1c(CCC(=O)O)ccc(OCc2c(-c3ccc(Cl)cc3)noc2C2CC2)c1C

EC50 [1]: 2830 nM
Compound: Cc1c(CCC(=O)O)ccc(OCc2c(-c3ccc(Cl)cc3)noc2-c2ccccc2)c1C

EC50 [1]: 1750 nM
Compound: Cc1c(CCC(=O)O)ccc(OCc2ncoc2-c2ccc(Cl)cc2)c1C

EC50 [1]: 81 nM
Compound: Cc1c(CCC(=O)O)ccc(OCc2scnc2-c2ccc(Cl)cc2)c1C

EC50 [5]: 290 nM | remaining at 10 min [2]: 99.3% | remaining at 10 min [3]: 108% | remaining at 10 min [4]: 92% | EC50 [1]: 71 nM
Compound: O=C(O)CCc1cc(F)c(OCc2c(-c3ccc(F)cc3Cl)noc2C(F)(F)F)c(F)c1

EC50 [1]: 410 nM
Compound: Cc1cc(OCc2c(-c3ccc(Cl)cc3)noc2C(F)(F)F)c(F)cc1CCC(=O)O

EC50 [5]: 160 nM | remaining at 10 min [2]: 91.2% | remaining at 10 min [3]: 80.9% | remaining at 10 min [4]: 68% | EC50 [1]: 680 nM
Compound: Cc1c(CCC(=O)O)ccc(OCc2c(-c3ccc(Cl)cc3)noc2C(F)(F)F)c1C

EC50 [1]: 1130 nM
Compound: COc1ccc(-c2noc(C(F)(F)F)c2COc2c(F)cc(CCC(=O)O)cc2F)cc1

F (Mus musculus [6]): 49.5% | EC50 [5]: 69 nM | fraction unbound [7]: 0.0122 | remaining at 10 min [2]: 93% | remaining at 10 min [3]: 95.6% | remaining at 10 min [4]: 110% | half-life [8]: 2.58 h | Vd [9]: 0.336 L/kg | fraction unbound [10]: 0.0017 | EC50 [1]: 170 nM | fraction unbound [11]: 0.0047
Compound: O=C(O)CCc1cc(F)c(OCc2c(-c3ccccc3)noc2C(F)(F)F)c(F)c1

bioavailability [12]: 93% | EC50 [5]: 160 nM | fraction unbound [7]: 0.0019 | remaining at 10 min [2]: 105% | clearance [15]: 7.18 mL/min/kg | Cmax [17]: 12700 ng/mL | remaining at 10 min [3]: 113% | remaining at 10 min [4]: 98.9% | half-life [8]: 2.07 h | Vd [9]: 1.26 L/kg | AUC(0-t) [18]: 43200 ng·h/mL | fraction unbound [10]: 0.0007 | EC50 [1]: 71 nM | fraction unbound [11]: 0.0014
Compound: O=C(O)CCc1cc(F)c(OCc2c(-c3ccc(Cl)cc3)noc2C(F)(F)F)c(F)c1
Activity (Mus musculus [13]): Active | Activity (Mus musculus [14]): -56% | Activity (Mus musculus [16]): 23% | Activity (Mus musculus [19]): 20%

EC50 [1]: 150 nM
Compound: O=C(O)CCc1ccc(OCc2c(-c3ccccc3)noc2C(F)(F)F)cc1

EC50 [5]: 750 nM | EC50 [1]: 100 nM
Compound: CCc1ccc(-n2cccc2COc2ccc(CCC(=O)O)c(C)c2C)cc1

EC50 [5]: 230 nM | remaining at 10 min [2]: 119% | remaining at 10 min [3]: 103% | remaining at 10 min [4]: 66.2% | EC50 [1]: 150 nM
Compound: O=C(O)CCc1cc(F)c(OCc2c(-c3ccc(F)cc3)noc2C(F)(F)F)c(F)c1

EC50 [5]: 1150 nM | EC50 [1]: 520 nM
Compound: CCc1ccc(-n2nccc2COc2ccc(CCC(=O)O)c(C)c2C)cc1

EC50 [5]: 930 nM | EC50 [1]: 145 nM
Compound: Cc1c(CCC(=O)O)ccc(OCc2cccn2-c2ccc(Cl)cc2)c1C

EC50 [1]: > 5000 nM
Compound: Cc1c(CCC(=O)O)ccc(OCc2nnnn2-c2ccc(Cl)cc2)c1C

EC50 [5]: 400 nM | remaining at 10 min [2]: 50.2% | remaining at 10 min [3]: 66.3% | remaining at 10 min [4]: 45.6% | EC50 [1]: 740 nM
Compound: CCc1onc(-c2ccc(Cl)cc2)c1COc1ccc(CCC(=O)O)c(C)c1C

EC50 [5]: 810 nM | EC50 [1]: 350 nM
Compound: Cc1noc(-c2ccc(Cl)cc2)c1COc1ccc(CCC(=O)O)c(C)c1C

EC50 [5]: 140 nM | remaining at 10 min [2]: 109% | remaining at 10 min [3]: 99.6% | remaining at 10 min [4]: 106% | EC50 [1]: 670 nM
Compound: O=C(O)CCc1ccc(OCc2c(-c3ccc(Cl)cc3)noc2C(F)(F)F)c(F)c1F

EC50 [5]: 900 nM | EC50 [1]: 160 nM
Compound: CCc1ccc(-c2ccsc2COc2ccc(CCC(=O)O)c(C)c2C)cc1

EC50 [1]: 190 nM
Compound: CCc1ccc(-c2sncc2COc2ccc(CCC(=O)O)c(C)c2C)cc1

EC50 [5]: 2760 nM | EC50 [1]: 1440 nM
Compound: Cc1c(CCC(=O)O)ccc(OCc2conc2-c2ccc(Cl)cc2)c1C

bioavailability [12]: 78.7% | EC50 [5]: 60 nM | fraction unbound [7]: 0.0011 | clearance [15]: 27.1 mL/min/kg | Cmax [17]: 7670 ng/mL | half-life [8]: 1.03 h | Vd [9]: 0.898 L/kg | AUC(0-t) [18]: 9660 ng·h/mL | fraction unbound [10]: 0.0006 | EC50 [1]: 57 nM | fraction unbound [11]: 0.0008
Compound: CCc1ccc(-c2noc(C(F)(F)F)c2COc2c(F)cc(CCC(=O)O)cc2F)cc1
Activity (Mus musculus [14]): -54% | Activity (Mus musculus [16]): -35% | Activity (Mus musculus [20]): Dose-dependent effect | Activity (Mus musculus [19]): 30% | Activity (Mus musculus [21]): Dose-dependent effect

EC50 [5]: 180 nM | remaining at 10 min [2]: 84.5% | remaining at 10 min [3]: 64.4% | remaining at 10 min [4]: 37.9% | EC50 [1]: 120 nM
Compound: Cc1ccc(-c2noc(C(F)(F)F)c2COc2c(F)cc(CCC(=O)O)cc2F)cc1

EC50 [5]: 160 nM | remaining at 10 min [2]: 86.3% | remaining at 10 min [3]: 93% | remaining at 10 min [4]: 54.3% | EC50 [1]: 110 nM
Compound: Cc1ccc(-c2noc(C(F)(F)F)c2COc2c(F)cc(CC(C)C(=O)O)cc2F)cc1 (centres undefined)

EC50 [5]: 190 nM | EC50 [1]: 340 nM
Compound: O=C(O)CCc1cc(F)c(OCc2c(-c3ccc(C(F)(F)F)cc3)noc2C(F)(F)F)c(F)c1

EC50 [5]: 760 nM | EC50 [1]: 270 nM
Compound: Cc1onc(-c2ccc(Cl)cc2)c1COc1ccc(CCC(=O)O)c(C)c1C

EC50 [1]: 142 nM
Compound: CCc1ccc(-c2cscc2COc2ccc(CCC(=O)O)c(C)c2C)cc1

EC50 [5]: 2030 nM | EC50 [1]: 610 nM
Compound: Cc1c(CCC(=O)O)ccc(OCc2ccnn2-c2ccc(Cl)cc2)c1C

EC50 [5]: 130 nM | remaining at 10 min [2]: 48.3% | remaining at 10 min [3]: 79.3% | remaining at 10 min [4]: 38.4% | EC50 [1]: 1060 nM
Compound: CCCc1onc(-c2ccc(Cl)cc2)c1COc1ccc(CCC(=O)O)c(C)c1C

EC50 [1]: 217 nM
Compound: Cc1c(CCC(=O)O)ccc(OCc2csnc2-c2ccc(Cl)cc2)c1C
